The values that follow come from patent US20040142910A1, “Sulfonated styrene copolymers for medical uses” (Aegis Biosciences LLC, priority 2002, published 2004).

In series [1] the test system is Human umbilical vein ECs (HUVECs). Nature of the series: endothelial cell proliferation in the absence of fibrin. Format: cell-based. To be noted: SNAP 0.1 and 0.4 mmol/L. The procedure: (§1) Angiogenesis is a complex process that involves the activation of quiescent endothelial cells (ECs) to a proliferative and migratory phenotype and, subsequently, their redifferentiation to form vascular tubes. We hypothesized that NO contributes to angiogenesis by terminating the proliferative action of angiogenic growth factors and initiating a genetic program of EC differentiation. Human umbilical vein ECs (HUVECs) and calf pulmonary artery ECs (CPAECs) were grown directly on plastic dishes or on three-dimensional fibrin matrices. […] The addition of basic fibroblast growth factor (bFGF, […]) increased the expression of endothelial NO synthase mRNA and the production of NO in both cell types when cultured on three-dimensional fibrin gels and produced profound morphological changes characterized by the appearance of extensive capillary-like vascular structures and the loss of EC monolayers. These changes were quantified by measuring total tube length per low-power field (X 100), and a differentiation index was derived using the ratio of tube length over area covered by residual EC monolayer. In the absence of additional angiogenic factors, the differentiation index was low for both HUVECs and CPAECs (control, 1.16plus or minus0.19 and 2.07plus or minus0.87, respectively).

The subject of series [2] is calf pulmonary artery ECs (CPAECs). The series is described as above. Format: cell-based. To be noted: SNAP 0.1 and 0.4 mmol/L, L-NAME, L-NMMA 1 mmol/L. The procedure: as §1
The subject of series [3] is endothelial cells (ECs). The series is described as follows: EC tube formation in response to bFGF. The class given is cell-based. The procedure: as §1
The conditions of series [4]: treatment of asthma; cited from earlier work.
Series [5] relates to Human umbilical vein ECs (HUVECs). The series is described as follows: EC differentiation on three-dimensional fibrin gels. The class given is cell-based. To be noted: bFGF 30 ng/nL. The protocol:
as §1

Series [6] concerns calf pulmonary artery ECs (CPAECs). The series is described as above. The class given is cell-based. To be noted: bFGF 30 ng/nL. The protocol: as §1

Take `CC(=O)N[C@H](C(=O)O)C(C)(C)SN=O` (racemic) [SNAP, S-nitroso-N-acetylpenicillamine]: the proliferation result in series [1] and in series [2] was “dose-dependent inhibition” throughout.
As for `COC(=O)[C@@H](N)CCCNC(=N)N[N+](=O)[O-]` [L-NAME, N(G)-nitro-L-arginine methyl ester], the proliferation result in series [2] is listed as “significantly increased”. Besides, in series [3], the “EC tube formation in response to bFGF” value was “inhibited EC tube formation”.
With `CNC(=N)NCCC[C@H](N)C(=O)O` [L-NMMA, N(G)-monomethyl-L- arginine], the proliferation entry in series [2] was “significantly increased”.
Consider `Cn1c(=O)c2[nH]cnc2n(C)c1=O` [theophylline], for which, in series [4], the “minimum effective blood concentrations” value was 6 to 10 µg/mL.
As to bFGF: basic fibroblast growth factor, the “expression of endothelial NO synthase mRNA and production of NO” value in series [5] and in series [6] was “increased” throughout.
